Columns and labels:
Assay type in all cases: in vivo
[1] = test system: Arabidopsis Col-0 seedlings; test: Arabidopsis hypocotyl elongation (growth) assay; details: long day (LD: 16/8 h) conditions
Experimental: FIG. 1: Left: hypocotyl length of Arabidopsis Col-0 seedlings germinated on solid ½MS medium for 4 days and then transferred for 3 more days to liquid ½MS supplemented with a range of concentrations of A68. Right: primary root length of Arabidopsis Col-0 seedlings grown on solid ½MS medium supplemented with a range of concentrations of A68 for 12 days. FIG. 2: Effects of A68 and its related variants on the Arabidopsis hypocotyl elongation. Arabidopsis seedlings were grown on solid ½MS medium for 4 days and then transferred for 3 more days to liquid ½ MS supplemented with the studied compounds at either 0.5 or 50 μM final concentration. Hypocotyl length is represented relative to that of mock-treated seedlings from the same biological repeats. n>400 seedlings for DMSO and A68 initial hit (control treatments throughout the experiments), n>30 seedlings for the A68 variants. Student's two-sample t-test, *P<0.05, **P<0.01 and ***P<0.001. FIG. 3: Hypocotyl elongation dose-response curves for A68 and three bioactive variants A68-6, A68-8 and A68-53 showing the half-maximum effective concentration EC50. A bioactive compound, herein further designated as A68, was identified by screening a commercial 10,000 compound library (DIVERSet, ChemBridge Corporation) for hypocotyl elongation phenotype at a final concentration of 50 μM in 2% DMSO. […]

[2] = test system: Arabidopsis seedlings; test: Osmotic stress tolerance in Arabidopsis seedlings (sorbitol); details: low concentrations; ½MS with sorbitol
Experimental: FIGS. 4A-4D: Effect of A68 and its variant A68-6 on Arabidopsis growth in osmotic stress conditions. The two compounds were tested at 3 different concentrations in ½MS without sucrose supplemented with 100 mM sorbitol. The extent of stress tolerance in presence of the small molecules was estimated by following the rosette size (FIG. 4A) as well as root related parameters, such as the total (FIG. 4B) and main (FIG. 4C) root length and lateral root number (FIG. 4D). Results are presented relative to the mock-treated control (0.005% DMSO). FIGS. 5A-5D: Effect of A68-6 on Arabidopsis growth in osmotic stress conditions. The compound was tested at 3 different concentrations in ½MS without sucrose supplemented with 200 mM sorbitol. The extent of stress tolerance in presence of the small molecules was estimated by following the rosette size (FIG. 5A) as well as root related parameters, such as the total (FIG. 5B) and main (FIG. 5C) root length and lateral root number (FIG. 5D). Results are presented relative to the mock-treated control (0.005% DMSO).

[3] = test system: Arabidopsis Col-0 seedlings; test: Arabidopsis primary root growth / lateral root number; details: long day (LD: 16/8 h) conditions
Source text: FIG. 1: Left: hypocotyl length of Arabidopsis Col-0 seedlings germinated on solid ½MS medium for 4 days and then transferred for 3 more days to liquid ½MS supplemented with a range of concentrations of A68. Right: primary root length of Arabidopsis Col-0 seedlings grown on solid ½MS medium supplemented with a range of concentrations of A68 for 12 days. A bioactive compound, herein further designated as A68, was identified by screening a commercial 10,000 compound library (DIVERSet, ChemBridge Corporation) for hypocotyl elongation phenotype at a final concentration of 50 μM in 2% DMSO. A68 promotes hypocotyl elongation, while suppresses primary root growth but increases lateral root number under long day (LD: 16/8 h) conditions (see FIG. 1).

[4] = test system: Strawberry, Fragaria ananasa, cv. Elsanta; test: Efficacy trial against frost damage on strawberry (trial 22.RM.SAB.028)
Source text: Preparation of the agronomical formulation: compound A68 is suspended in acetone at a concentration of 1 g/l. Further in this example this suspension is designated as 22.SC.040.
Trial setup: Strawberry, Fragaria ananasa, tray plants cv. Elsanta were planted in P13 pots, 1 plant per pot. The used substrate was a standard strawberry-substrate with addition of 180 g Osmocoat/651 substrate. (Osmocoat 18-5-11+4CaO+2MgO Agroblen 3-4 months).
36 plants (6 objects×6 repetitions) were randomly placed on tables with eb-flood system (21 l/2.5 m2 during 10 minutes, 2×/24 hours) in the greenhouse (22° C./10° C. day/night; 50% RH).
Foliar applications were executed in a standardized spraying cabin. A nozzle (Albuz TVI, color green) moved over the plants with a constant speed, simulating a spraying volume of 300l/ha.
At full bloom of the first flower branch, these branches were marked with a plastic strip. The plants were placed on pallets and enter a fridge at 5° C. during night, to decrease warmth in the substrate and chill the plants. The next morning, the plants were moved from the fridge to a freezing container. […]
One day and one week after frost, the flowers on the marked branches were assessed. […]
When the fruits ripen, the ripe fruits were picked. […] Also, the number of fruits were counted and the weight was measured. […]

## Cc1cccc(C(=O)Nc2ccc(Oc3ccc4c(c3)C(=O)NC4=O)cc2)c1 [Compound A68, N-(4-((1,3-dioxoisoindolin-5-yl)oxy)phenyl)-3-methylbenzamide]
[1]
  hypocotyl elongation: promotes
[2]
  tolerance to mild osmotic stress: enhance tolerance
[3]
  lateral root number: increases
  primary root growth: suppresses
[4]; A68 suspended in acetone, foliar spray
  efficacy to decrease frost damage on strawberry: clear indications of efficacy
[4]; maximum efficacy of the Gauss-curve
  optimal dose-rate: around 1000 mg/ha

From patent publication US20260223847A1, “Compounds for Increasing Frost Tolerance in Plants” (VIB VZW, priority 2023, published 2026)
